What follows are compounds tested on progranulin (assay: Progranulin induction cellular assay (ELISA of secreted mouse PGRN)). Details: Mus musculus, BV-2, read-out: EC50 μM.
Format: cell-based
How it was run: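 Secreted mouse PGRN in culture medium is measured by ELISA. Cells tested are BV-2, primary cortical neurons and primary microglia. BV-2 cells are plated a day ahead, allowed 1 h to attach, then incubated 16 h.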

Point of comparison: `C#CCO[C@H]1CO[C@@H](C(=O)N2CCc3ccccc3[C@@H]2c2ccc(F)cc2)C[C@@H]1N` [Compound 5541, ((2R,4S,5R)-4-amino-5-(prop-2-yn-1-yloxy)tetrahydro-2H-pyran-2-yl)((S)-1-(4-fluorophenyl)-3,4-dihydroisoquinolin-2(1H)-yl)methanone], EC50 0.001 µM. Against it:
- COC[C@]1(N)CC[C@@H](C(=O)N2CCc3ccccc3[C@@H]2c2ccc(F)cc2)OC1 [Compound 5218, ((2S,5R)-5-amino-5-(methoxymethyl)tetrahydro-2H-pyran-2-yl)((S)-1-(4-fluorophenyl)-3,4-dihydroisoquinolin-2(1H)-yl)methanone] — 120-fold higher, 0.12 µM
- C=CCO[C@H]1CO[C@@H](C(=O)N2CCc3ccccc3[C@@H]2c2ccc(F)cc2)C[C@@H]1N [Compound 5476, ((2R,4S,5R)-5-(allyloxy)-4-aminotetrahydro-2H-pyran-2-yl)((S)-1-(4-fluorophenyl)-3,4-dihydroisoquinolin-2(1H)-yl)methanone] — the same, 0.001 µM
- COC[C@@]1(N)CC[C@@H](C(=O)N2CCc3ccccc3[C@@H]2c2ccc(F)cc2)OC1 [Compound 5217, ((2S,5S)-5-amino-5-(methoxymethyl)tetrahydro-2H-pyran-2-yl)((S)-1-(4-fluorophenyl)-3,4-dihydroisoquinolin-2(1H)-yl)methanone] — 230-fold higher, 0.226 µM

Same assay, conditions: progranulin induction assay; mouse pMG, primary cortical neurons and BV-2 cell lines named, cell type not given; ELISA-based readout; read-out: EC50

Point of comparison: `O=C([C@H]1C[C@@H]2NCCN(CC(F)(F)F)[C@H]2CO1)N1CCc2ccccc2[C@@H]1c1ccc(F)cc1` (single isomer, unassigned) [Compound 5545], EC50 0.004 µM. Against it:
- O=C([C@H]1OCCN[C@@H]1CF)N1CCc2ccccc2[C@@H]1c1ccc(F)cc1 [Compound 5501] — 960-fold higher, 3.86 µM
- N[C@@H]1CO[C@@H](C(=O)N2CCc3ccccc3[C@@H]2c2ccc(F)cc2)C[C@H]1O [Compound 5057, ((2R,4R,5R)-5-amino-4-hydroxytetrahydro-2H-pyran-2-yl)((S)-1-(4-fluorophenyl)-3,4-dihydroisoquinolin-2(1H)-yl)methanone] — 33-fold higher, 0.133 µM
- O=C([C@H]1C[C@@H]2NCCS[C@H]2CO1)N1CCc2ccccc2[C@@H]1c1ccc(F)cc1 (single isomer, unassigned) [Compound 5534] — 3.8-fold higher, 0.015 µM
- O=C([C@H]1OCCNC[C@H]1F)N1CCc2ccccc2[C@@H]1c1ccc(F)cc1 [Compound 5421] — 210-fold higher, 0.843 µM
- N[C@@H]1CO[C@@H](C(=O)N2CCc3ccccc3[C@@H]2c2ccc(F)cc2)C[C@H]1F [Compound 5061, ((2R,4R,5R)-5-amino-4-fluorotetrahydro-2H-pyran-2-yl)((S)-1-(4-fluorophenyl)-3,4-dihydroisoquinolin-2(1H)-yl)methanone] — 120-fold higher, 0.478 µM
- N[C@H]1CCO[C@@H](C(=O)N2CCc3ccccc3[C@@H]2c2ccc(F)cc2F)C1 [Compound 5500] — 48-fold higher, 0.19 µM
- N[C@H]1C[C@H](C(=O)N2CCc3ccccc3[C@@H]2c2ccc(F)cc2)OC[C@H]1CO [Compound 5538, ((2R,4S,5R)-4-amino-5-(hydroxymethyl)tetrahydro-2H-pyran-2-yl)((S)-1-(4-fluorophenyl)-3,4-dihydroisoquinolin-2(1H)-yl)methanone] — 16-fold higher, 0.064 µM
- CN1CCN[C@H]2C[C@H](C(=O)N3CCc4ccccc4[C@@H]3c3ccc(F)cc3)OC[C@@H]21 [Compound 5462, ((S)-1-(4-fluorophenyl)-3,4-dihydroisoquinolin-2(1H)-yl)((4aR,7R,8aS)-4-methyloctahydro-2H-pyrano[3,4-b]pyrazin-7-yl)methanone] — within 1.5-fold, 0.003 µM
- NCC1(O)COC(C(=O)N2CCc3ccccc3[C@@H]2c2ccc(F)cc2)C1 (single isomer, unassigned) [Compound 5007] — 35-fold higher, 0.14 µM
- CS(=O)(=O)[C@@H]1CO[C@@H](C(=O)N2CCc3ccccc3[C@@H]2c2ccc(F)cc2)C[C@@H]1N [Compound 5426, ((2R,4S,5S)-4-amino-5-(methylsulfonyl)tetrahydro-2H-pyran-2-yl)((S)-1-(4-fluorophenyl)-3,4-dihydroisoquinolin-2(1H)-yl)methanone] — 110-fold higher, 0.441 µM
- O=C([C@H]1C[C@@H]2NCCO[C@@H]2CO1)N1CCc2ccccc2[C@@H]1c1ccc(F)cc1 [Compound 5448, ((S)-1-(4-fluorophenyl)-3,4-dihydroisoquinolin-2(1H)-yl)((4aS,7R,8aS)-octahydropyrano[3,4-b][1,4]oxazin-7-yl)methanone] — 11-fold higher, 0.044 µM
- N[C@@H]1C[C@@H](C(=O)N2CCc3ccccc3[C@@H]2c2ccc(F)cc2)OC[C@H]1O [Compound 5068, ((2S,4R,5S)-4-amino-5-hydroxytetrahydro-2H-pyran-2-yl)((S)-1-(4-fluorophenyl)-3,4-dihydroisoquinolin-2(1H)-yl)methanone] — 94-fold higher, 0.376 µM
- CN[C@H]1C[C@H](C(=O)N2CCc3ccccc3[C@@H]2c2ccc(F)cc2)OC[C@@H]1OC [Compound 5503, ((S)-1-(4-fluorophenyl)-3,4-dihydroisoquinolin-2(1H)-yl)((2R,4S,5R)-5-methoxy-4-(methylamino)tetrahydro-2H-pyran-2-yl)methanone] — within 1.5-fold, 0.005 µM
- N[C@H]1CO[C@@H](C(=O)N2CCc3ccccc3[C@@H]2c2ccc(F)cc2)C[C@@H]1O [Compound 5070, ((2R,4S,5S)-5-amino-4-hydroxytetrahydro-2H-pyran-2-yl)((S)-1-(4-fluorophenyl)-3,4-dihydroisoquinolin-2(1H)-yl)methanone] — 38-fold higher, 0.153 µM
- N[C@H]1CO[C@H](C(=O)N2CCc3ccccc3[C@@H]2c2ccc(F)cc2)C[C@@H]1F [Compound 5059, ((2S,4S,5S)-5-amino-4-fluorotetrahydro-2H-pyran-2-yl)((S)-1-(4-fluorophenyl)-3,4-dihydroisoquinolin-2(1H)-yl)methanone] — 86-fold higher, 0.344 µM
- N[C@H]1CCO[C@@H](C(=O)N2CCc3ccccc3[C@@H]2c2ccc(F)cc2)C1 (single isomer, unassigned) [Compound 5080] — 42-fold higher, 0.166 µM
- N[C@H]1CO[C@H](C(=O)N2CCc3ccccc3[C@@H]2c2ccc(F)cc2)C[C@H]1O [Compound 5043, ((2S,4R,5S)-5-amino-4-hydroxytetrahydro-2H-pyran-2-yl)((S)-1-(4-fluorophenyl)-3,4-dihydroisoquinolin-2(1H)-yl)methanone] — 16-fold higher, 0.064 µM
- O=C([C@@H]1OCCNC[C@@H]1O)N1CCc2ccccc2[C@@H]1c1ccc(F)cc1 [Compound 5243, ((S)-1-(4-fluorophenyl)-3,4-dihydroisoquinolin-2(1H)-yl)((6S,7R)-6-hydroxy-1,4-oxazepan-7-yl)methanone] — 50-fold higher, 0.2 µM
- N[C@@H]1CO[C@H](C(=O)N2CCc3ccccc3[C@@H]2c2ccc(F)cc2)C[C@@H]1O [Compound 5053, ((2S,4S,5R)-5-amino-4-hydroxytetrahydro-2H-pyran-2-yl)((S)-1-(4-fluorophenyl)-3,4-dihydroisoquinolin-2(1H)-yl)methanone] — 19-fold higher, 0.077 µM
- N[C@H]1COC(C(=O)N2CCc3ccccc3[C@@H]2c2ccc(F)cc2)C1 (stereo in doubt) [Compound 5010, ((2S,4R)-4-aminotetrahydrofuran-2-yl)((S)-1-(4-fluorophenyl)-3,4-dihydroisoquinolin-2(1H)-yl)methanone] — 140-fold higher, 0.573 µM
- N[C@@H]1CO[C@@H](C(=O)N2CCc3ccccc3[C@@H]2c2ccc(F)cc2)C[C@@H]1F [Compound 5064, ((2R,4S,5R)-5-amino-4-fluorotetrahydro-2H-pyran-2-yl)((S)-1-(4-fluorophenyl)-3,4-dihydroisoquinolin-2(1H)-yl)methanone] — 25-fold higher, 0.102 µM
- N[C@@H]1COC(C(=O)N2CCc3ccccc3[C@@H]2c2ccc(F)cc2)C1 (stereo in doubt) [Compound 5011, ((2S,4S)-4-aminotetrahydrofuran-2-yl)((S)-1-(4-fluorophenyl)-3,4-dihydroisoquinolin-2(1H)-yl)methanone] — 410-fold higher, 1.66 µM
- N[C@]1(CO)CC[C@@H](C(=O)N2CCc3ccccc3[C@@H]2c2ccc(F)cc2)OC1 [Compound 5213, ((2S,5S)-5-amino-5-(hydroxymethyl)tetrahydro-2H-pyran-2-yl)((S)-1-(4-fluorophenyl)-3,4-dihydroisoquinolin-2(1H)-yl)methanone] — 100-fold higher, 0.401 µM
- N[C@H]1C[C@H](C(=O)N2CCc3ccccc3[C@@H]2c2ccc(F)cc2)OC[C@@H]1NCC(F)(F)F [Compound 5539, ((2R,4S,5R)-4-amino-5-((2,2,2-trifluoroethyl)amino)tetrahydro-2H-pyran-2-yl)((S)-1-(4-fluorophenyl)-3,4-dihydroisoquinolin-2(1H)-yl)methanone] — 4-fold lower, 0.001 µM
- CCNC[C@]1(O)CO[C@@H](C(=O)N2CCc3ccccc3[C@@H]2c2ccc(F)cc2)C1 [Compound 5036, ((2R,4S)-4-((ethylamino)methyl)-4-hydroxytetrahydrofuran-2-yl)((S)-1-(4-fluorophenyl)-3,4-dihydroisoquinolin-2(1H)-yl)methanone] — 89-fold higher, 0.356 µM
- COCCN[C@@H]1CC[C@@H](C(=O)N2CCc3ccccc3[C@@H]2c2ccc(F)cc2)OC1 [Compound 5035, ((S)-1-(4-fluorophenyl)-3,4-dihydroisoquinolin-2(1H)-yl)((2S,5R)-5-((2-methoxyethyl)amino)tetrahydro-2H-pyran-2-yl)methanone] — 93-fold higher, 0.371 µM
- N[C@@H]1COC(C(=O)N2CCc3ccccc3[C@@H]2c2ccc(F)cc2)C1 (stereo in doubt) [Compound 5013, ((2R,4S)-4-aminotetrahydrofuran-2-yl)((S)-1-(4-fluorophenyl)-3,4-dihydroisoquinolin-2(1H)-yl)methanone] — 81-fold higher, 0.323 µM
- O=C([C@@H]1OCCNC[C@H]1O)N1CCc2ccccc2[C@@H]1c1ccc(F)cc1 [Compound 5245] — 87-fold higher, 0.35 µM
- COCCN[C@H]1CC[C@H](C(=O)N2CCc3ccccc3[C@@H]2c2ccc(F)cc2)OC1 [Compound 5030, ((S)-1-(4-fluorophenyl)-3,4-dihydroisoquinolin-2(1H)-yl)((2R,5S)-5-((2-methoxyethyl)amino)tetrahydro-2H-pyran-2-yl)methanone] — 87-fold higher, 0.348 µM
- C[C@@]1(C(=O)N2CCc3ccccc3[C@@H]2c2ccc(F)cc2)C[C@@H](N)CCO1 (single isomer, unassigned) [Compound 5238] — 26-fold higher, 0.105 µM
- N[C@@H]1CCO[C@@H](C(=O)N2CCc3ccccc3[C@@H]2c2ccc(F)cc2)C1 (single isomer, unassigned) [Compound 5028] — 10-fold higher, 0.042 µM

Reference: patent publication US20230406843A1, “Progranulin Modulators and Methods of Using the Same” (ARKUDA THERAPEUTICS, priority 2020, published 2023)
